Key:
Details in all cases: 48 h
[1] = system: NOMO1; assay: cell viability relative to DMSO control; higher = less cytotoxic
Outline: (§1)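 Viability is a per-plate percentage relative to DMSO wells, with cell-free wells as background. CellTiter-Glo One luminescence was read after 48 h at 37°C on 1536-well plates (5 μl) of NOMO1 or SEM (500 cells/well) or P12-Ichikawa (1000 cells/well) leukemia cells. The cells had been adapted for at least four passages in each medium and pin-dosed with library compounds in DMSO from 47 μM to 0.79 nM in 11 threefold steps.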

[2] = system: P12-Ichikawa; assay: as above
Outline: as §1

[3] = system: SEM cells; assay: as above
Outline: as §1

[4] = system: NOMO1; assay: AUC of viability dose-response curve (% viability x log10 dose units); higher = less sensitive
Outline: (§2)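 In 1536-well plates, leukemia cells adapted to each medium (500 or 1000 cells/well) were exposed for 48 h at 37°C to library compounds in DMSO across 11 threefold doses, 47 μM down to 0.79 nM. Viability was read by CellTiter-Glo One luminescence and normalised per plate to DMSO and cell-free wells. A four-parameter log-logistic fit over log10 doses was integrated by trapezoidal rule. This yielded the area under the curve, with over-full-viability curves scaled and quality-control failures dropped.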

[5] = system: P12-Ichikawa; assay: as above
Outline: as §2

[6] = system: SEM cells; assay: as above
Outline: as §2

O=C(CCc1ccc(O)cc1)c1c(O)cc(O)cc1O
cell viability [%]
Details | [1] | [2] | [3]
HPLM + 10% dialyzed FBS, 0.000781 µM | 84.2 | 94.5 | 74
HPLM + 10% dialyzed FBS, 0.00234 µM | 95.5 | 106 | 79.7
HPLM + 10% dialyzed FBS, 0.00702 µM | 108 | 104 | 92
HPLM + 10% dialyzed FBS, 0.0211 µM | 112 | 99.5 | 95.5
HPLM + 10% dialyzed FBS, 0.0632 µM | 93.8 | 103 | 89.1
HPLM + 10% dialyzed FBS, 0.19 µM | 104 | 111 | 95.9
HPLM + 10% dialyzed FBS, 0.569 µM | 100 | 110 | 115
HPLM + 10% dialyzed FBS, 1.71 µM | 125 | 116 | 94.5
HPLM + 10% dialyzed FBS, 5.12 µM | 116 | 112 | 57
HPLM + 10% dialyzed FBS, 15.4 µM | 93 | 103 | 107
HPLM + 10% dialyzed FBS, 46.1 µM | 36.8 | 110 | 100
RPMI 5 mM glucose + 10% FBS, 0.000781 µM | 91.5 | 89.5 | 80.8
RPMI 5 mM glucose + 10% FBS, 0.00234 µM | 98.6 | 91 | 102
RPMI 5 mM glucose + 10% FBS, 0.00702 µM | 105 | 100 | 102
RPMI 5 mM glucose + 10% FBS, 0.0211 µM | 102 | 103 | 85.6
RPMI 5 mM glucose + 10% FBS, 0.0632 µM | 98 | 90.2 | 86.3
RPMI 5 mM glucose + 10% FBS, 0.19 µM | 99.5 | 101 | 97.7
RPMI 5 mM glucose + 10% FBS, 0.569 µM | 96.1 | 106 | 105
RPMI 5 mM glucose + 10% FBS, 1.71 µM | 106 | 104 | 99.4
RPMI 5 mM glucose + 10% FBS, 5.12 µM | 98.3 | 105 | 40.2
RPMI 5 mM glucose + 10% FBS, 15.4 µM | 101 | 107 | 105
RPMI 5 mM glucose + 10% FBS, 46.1 µM | 38.3 | 91.1 | 106
RPMI 5 mM glucose + 10% dialyzed FBS, 0.000781 µM | 82.4 | 81.6 | 96.5
RPMI 5 mM glucose + 10% dialyzed FBS, 0.00234 µM | 101 | 92 | 90.9
RPMI 5 mM glucose + 10% dialyzed FBS, 0.00702 µM | 94.5 | 93 | 89.7
RPMI 5 mM glucose + 10% dialyzed FBS, 0.0211 µM | 103 | 96.7 | 90
RPMI 5 mM glucose + 10% dialyzed FBS, 0.0632 µM | 98.1 | 100 | 83.6
RPMI 5 mM glucose + 10% dialyzed FBS, 0.19 µM | 87.1 | 98.7 | 105
RPMI 5 mM glucose + 10% dialyzed FBS, 0.569 µM | 98.9 | 103 | 88.1
RPMI 5 mM glucose + 10% dialyzed FBS, 1.71 µM | 103 | 94.3 | 91
RPMI 5 mM glucose + 10% dialyzed FBS, 5.12 µM | 101 | 102 | 62.3
RPMI 5 mM glucose + 10% dialyzed FBS, 15.4 µM | 106 | 90.4 | 102
RPMI 5 mM glucose + 10% dialyzed FBS, 46.1 µM | 74.7 | 99.4 | 102

AUC of viability dose-response curve
Details | [4] | [5] | [6]
HPLM + 10% dialyzed FBS | 457 | 459 | 433
RPMI 5 mM glucose + 10% FBS | 460 | 467 | 438
RPMI 5 mM glucose + 10% dialyzed FBS | 455 | 459 | 434

OC[C@H]1O[C@H](C[C@@H]1O)N2\C=C(F)/C(=O)NC2=O
cell viability [%]
Details | [1] | [2] | [3]
HPLM + 10% dialyzed FBS, 0.000781 µM | 115 | 123 | 124
HPLM + 10% dialyzed FBS, 0.00234 µM | 120 | 109 | 113
HPLM + 10% dialyzed FBS, 0.00702 µM | 120 | 110 | 120
HPLM + 10% dialyzed FBS, 0.0211 µM | 70.9 | 92.4 | 86.7
HPLM + 10% dialyzed FBS, 0.0632 µM | 51.9 | 78.1 | 55.3
HPLM + 10% dialyzed FBS, 0.19 µM | 46.8 | 47.9 | 47.7
HPLM + 10% dialyzed FBS, 0.569 µM | 52.1 | 33.3 | 46.1
HPLM + 10% dialyzed FBS, 1.71 µM | 50.4 | 28.5 | 44.4
HPLM + 10% dialyzed FBS, 5.12 µM | 35.5 | 20.6 | 35.1
HPLM + 10% dialyzed FBS, 15.4 µM | 27.8 | 22.7 | 31.5
HPLM + 10% dialyzed FBS, 46.1 µM | 17.9 | 11 | 12.1
RPMI 5 mM glucose + 10% FBS, 0.000781 µM | 121 | 115 | 119
RPMI 5 mM glucose + 10% FBS, 0.00234 µM | 118 | 104 | 115
RPMI 5 mM glucose + 10% FBS, 0.00702 µM | 114 | 101 | 121
RPMI 5 mM glucose + 10% FBS, 0.0211 µM | 118 | 106 | 121
RPMI 5 mM glucose + 10% FBS, 0.0632 µM | 120 | 92.2 | 130
RPMI 5 mM glucose + 10% FBS, 0.19 µM | 89.9 | 55.2 | 102
RPMI 5 mM glucose + 10% FBS, 0.569 µM | 82.6 | 51.6 | 86.9
RPMI 5 mM glucose + 10% FBS, 1.71 µM | 72.7 | 38.1 | 80.3
RPMI 5 mM glucose + 10% FBS, 5.12 µM | 44.1 | 25.6 | 33.9
RPMI 5 mM glucose + 10% FBS, 15.4 µM | 39.1 | 33.6 | 40.6
RPMI 5 mM glucose + 10% FBS, 46.1 µM | 30.2 | 30.1 | 16.3
RPMI 5 mM glucose + 10% dialyzed FBS, 0.000781 µM | 140 | 124 | 110
RPMI 5 mM glucose + 10% dialyzed FBS, 0.00234 µM | 119 | 109 | 92.8
RPMI 5 mM glucose + 10% dialyzed FBS, 0.00702 µM | 106 | 116 | 88.5
RPMI 5 mM glucose + 10% dialyzed FBS, 0.0211 µM | 79.2 | 109 | 40.5
RPMI 5 mM glucose + 10% dialyzed FBS, 0.0632 µM | 63.9 | 76.9 | 35.1
RPMI 5 mM glucose + 10% dialyzed FBS, 0.19 µM | 46.4 | 45.7 | 26.5
RPMI 5 mM glucose + 10% dialyzed FBS, 0.569 µM | 47 | 34.3 | 31.1
RPMI 5 mM glucose + 10% dialyzed FBS, 1.71 µM | 34.4 | 30.3 | 25.6
RPMI 5 mM glucose + 10% dialyzed FBS, 5.12 µM | 24.6 | 21.8 | 23.3
RPMI 5 mM glucose + 10% dialyzed FBS, 15.4 µM | 27.6 | 27.6 | 18.1
RPMI 5 mM glucose + 10% dialyzed FBS, 46.1 µM | 20.1 | 19.4 | 10.8

AUC of viability dose-response curve
Details | [4] | [5] | [6]
HPLM + 10% dialyzed FBS | 250 | 244 | 243
RPMI 5 mM glucose + 10% FBS | 347 | 298 | 352
RPMI 5 mM glucose + 10% dialyzed FBS | 214 | 259 | 198

CCN1\C=C(\C(O)=O)C(=O)C2=C1N=C(N3CCNCC3)C(=C2)F
cell viability [%]
Details | [1] | [2] | [3]
HPLM + 10% dialyzed FBS, 0.000781 µM | 74.8 | 75.4 | 58.6
HPLM + 10% dialyzed FBS, 0.00234 µM | 73.4 | 89.2 | 79.7
HPLM + 10% dialyzed FBS, 0.00702 µM | 85.3 | 85.8 | 68.2
HPLM + 10% dialyzed FBS, 0.0211 µM | 93 | 94.9 | 87.3
HPLM + 10% dialyzed FBS, 0.0632 µM | 88.6 | 91.8 | 84.8
HPLM + 10% dialyzed FBS, 0.19 µM | 82.2 | 93.7 | 92.3
HPLM + 10% dialyzed FBS, 0.569 µM | 86.2 | 94.1 | 84.8
HPLM + 10% dialyzed FBS, 1.71 µM | 84.3 | 91.9 | 88.5
HPLM + 10% dialyzed FBS, 5.12 µM | 46 | 91.4 | 84.2
HPLM + 10% dialyzed FBS, 15.4 µM | 42 | 92.2 | 81
HPLM + 10% dialyzed FBS, 46.1 µM | 20.3 | 84.1 | 68
RPMI 5 mM glucose + 10% FBS, 0.000781 µM | 78 | 72.1 | 77.9
RPMI 5 mM glucose + 10% FBS, 0.00234 µM | 83.9 | 82.1 | 102
RPMI 5 mM glucose + 10% FBS, 0.00702 µM | 93 | 76 | 72
RPMI 5 mM glucose + 10% FBS, 0.0211 µM | 83.8 | 86.3 | 82
RPMI 5 mM glucose + 10% FBS, 0.0632 µM | 81.1 | 80.7 | 92.5
RPMI 5 mM glucose + 10% FBS, 0.19 µM | 85.1 | 81.6 | 84.5
RPMI 5 mM glucose + 10% FBS, 0.569 µM | 79 | 79.4 | 92.8
RPMI 5 mM glucose + 10% FBS, 1.71 µM | 86.4 | 78.4 | 81.9
RPMI 5 mM glucose + 10% FBS, 5.12 µM | 81.4 | 85.7 | 86
RPMI 5 mM glucose + 10% FBS, 15.4 µM | 79.1 | 83.6 | 89.6
RPMI 5 mM glucose + 10% FBS, 46.1 µM | 16 | 81 | 77.4
RPMI 5 mM glucose + 10% dialyzed FBS, 0.000781 µM | 55.2 | 74.1 | 74.9
RPMI 5 mM glucose + 10% dialyzed FBS, 0.00234 µM | 91 | 82.6 | 86.8
RPMI 5 mM glucose + 10% dialyzed FBS, 0.00702 µM | 81.6 | 77.7 | 71.2
RPMI 5 mM glucose + 10% dialyzed FBS, 0.0211 µM | 82.5 | 90.3 | 90.4
RPMI 5 mM glucose + 10% dialyzed FBS, 0.0632 µM | 79.2 | 84.1 | 78.1
RPMI 5 mM glucose + 10% dialyzed FBS, 0.19 µM | 74.1 | 76.9 | 84
RPMI 5 mM glucose + 10% dialyzed FBS, 0.569 µM | 82.6 | 88.7 | 90.5
RPMI 5 mM glucose + 10% dialyzed FBS, 1.71 µM | 82.5 | 83.3 | 93.9
RPMI 5 mM glucose + 10% dialyzed FBS, 5.12 µM | 81 | 77.2 | 81.5
RPMI 5 mM glucose + 10% dialyzed FBS, 15.4 µM | 76.3 | 83.4 | 103
RPMI 5 mM glucose + 10% dialyzed FBS, 46.1 µM | 20.1 | 95.1 | 87.8

AUC of viability dose-response curve
Details | [4] | [5] | [6]
HPLM + 10% dialyzed FBS | 343 | 430 | 385
RPMI 5 mM glucose + 10% FBS | 380 | 386 | 407
RPMI 5 mM glucose + 10% dialyzed FBS | 361 | 396 | 409
